Test results published in US11672786B2, “Methods of treating diseases associated with repeat instability” (The Hospital for Sick Children, priority 2016, dated 2023).
Where “and” joins values, the source holds several entries; their conditions need not be identical. Equal entries are not always repeated.

Legend:
[1] = tested on: HT1080-(CAG)850 cells; assay: small-pool PCR repeat instability, proliferating HT1080-(CAG)850 cells producing rCAG transcript; assay type: cell-based, human; conditions: 30 days; for % Contraction / % Expansion: cut-off ±25 repeats
Description: The construction of the HT1080-(CAG)850 cell model was described previously (Sathasivam et al., 1997, Hum. Genet., 99:692-5). Briefly, HT1080 (ATCC) human fibrosarcoma cells were co-transfected with a plasmid (LC15-R) containing 800-850 (CTG)●(CAG) repeats (Nakatani et al., 2005, Nat. Chem. Biol., 1:39-43) and a plasmid encoding PhiC31 integrase. Transfection was performed with a Nucleofector (Lonza, Basel, Switzerland), and stably transfected clones were selected with puromycin. […] The HT1080-non-transcribing (CAG)850 cell model was established by transfecting a plasmid modified from pLC16 by inserting an additional SV40 polyadenylation signal downstream of the repeats (in addition to the original polyadenylation signals located upstream of the repeats), so that CAG/CTG repeats are floxed by transcription-terminator elements. The AttB-PhiC31 system has been widely used for single copy integration. […] The HT1080 model cells and an HD primary fibroblast cell line, GM09197 (Coriell Biorepository) with a large expanded allele of 180 CAG repeats and a non-expanded allele of 23 repeats (Sathasivam et al., 1997, Hum. Genet., 99:[…]), the HD primary fibroblast cell line, GM02191 (Coreill Biorepository) with an expanded allele of 43 CAG repeats and a non-expanded allele of 19 repeats, were cultured at 37° C. with 5% CO2 in Dulbecco's modified Eagle's medium supplemented with 10% fetal bovine serum and 1% penicillin/streptomycin. Cells were treated with or without continuous exposure to 50-μM NA for 30 days (HT1080 cells) or for 40 days (fibroblast cells). For experiments on non-proliferating cells, HT1080 cells were grown to confluence and then treated for the same period. WST-1 assay was performed according to the manufacturer's instructions (Roche, Basel, Switzerland). All cell lines were tested to be free of Mycoplasma. Three biological replicates were performed for each experiment.
Genomic DNA was extracted from HT1080-(CAG)850 clones and HD primary fibroblasts using the Gentra Puregene Cell Kit (Qiagen, Valencia, Calif.). The expanded (CTG)●(CAG) repeats were sized by small-pool PCR (sp-PCR) followed by Southern blot as described previously (Sathasivam et al., 1997, Hum. Genet., 99:692-5). For HT1080 models, small-pool PCR (spPCR) was performed with the input of 1.4-1.7 genome equivalents. The repeat size difference in the models is, at most, 3000 base-pairs, therefore, being strictly conservative, a bias toward amplifying the shorter allele can be possible, even under optimized PCR conditions described herein. For HD primary fibroblasts, sp-PCR & Southern blots were performed as described previously with slight modifications (Tome et al., 2013, PLoS Genet., 9:e1003280). Briefly, the PCR primers listed in Table 1 were used, and blots were hybridized with a DIG-labeled (CAG)7 locked nucleic acid probe (Nakamori et al. 2009, Neuromuscul. Disord., 19:759-62). At least 50 alleles were analyzed for each of the three experiments (more than 150 alleles for a total study). Repeat analyses are summarized in Table 2, compiled from complete small-pool-PCR datasets for each repetition of each experiment. For the histograms in FIGS. 4D, 4E, 10, 11, 5B, 5D, 5E, 14 and 15B, the Y-axis, “% of repeat population” was calculated by determining the proportion of >50 individual small-pool PCR reactions across the CAG repeat tract, that harbored a certain size of repeat product with a certain length. Cell clones were grown 30 or 40 days with or without NA (see, for example, Sathasivam et al., 1997, Hum. Genet., 99:692-5). Specifically, the histograms of repeat length distributions were from at least two different cell clones. Length distributions were determined as follows: Small-pool PCR followed by Southern blot for analysis of CAG/CTG repeat length.

[2] = tested on: Huntington's disease R6/2 transgenic mice, striatum; assay: stereotaxic intra-striatal injections into R6/2 mice, CAG length Genescan analysis and instability index; assay type: in vivo, mouse
Description: This calculation corrects background using a relative height threshold and normalizes data efficiently, generating an “instability index” that represents the mean CAG length change from the main allele per cell in a population of cells: greater indices reflect greater expansions, lower indices-lower expansions.
Mouse handling and experimental procedures were conducted in accordance with the Osaka University guidelines for the welfare of animals. A single drug application involved six separate stereotactic injections, three injections of drug or saline into three different striatal regions of either the left or right striatum, respectively (outlined in FIG. 24). Under sterile conditions, 6-week-old R6/2 mice were anesthetized with 50 mg/kg pentobarbital sodium, and stereotaxically injected with 5 μl of saline (right side) or 500 μM NA dissolved in saline (left side) into three different sites of the striatum. The mice received injections once or twice bi-weekly, or weekly for 4 consecutive weeks. Stereotaxic injections were delivered to three sites within the striatum with the following coordinates: (anterior-posterior (AP)=0.0 mm, medial-lateral (ML)=1.5 mm from bregma, dorsal-ventral (DV)=2.5 mm below the dural surface; AP=1.0 mm, ML=1.5 mm, DV=2.5 mm; and AP=0.5 mm, ML=1.5 mm, DV=2.5 mm), using a 10-μl Hamilton microsyringe at a rate of 0.5 μL/min. Refer to FIG. 24 outlining dosing regimen. […] The control of our NA treatment is therefore the contralateral side of the striatum of each mouse. Both right and left striatum were assessed for repeat length at the HD CAG transgene and at endogenous, long CAG tracts. For the mice treated four times, DNAs from the tail prior to and following NA administration, as well as left and right frontal cortex and left and right cerebellum were harvested.
At 4 weeks after the first injection, DNA was isolated from mouse brain tissue as previously described (Nakamori et al. 2009, Neuromuscul. Disord., 19:759-62). PCR was performed as described previously (Tome et al., 2013, PLoS Genet., 9:e1003280), and PCR products were sized on an ABI310 Gene Analyser using […] 3.1 software (Life Technologies).
The procedure for instability index calculation was done as previously described (Lee et al., 2010, BMC Syst. Biol., 4:29) and is illustrated and outlined in FIG. 27A.

[3] = 50 uM NA, Total of 3 experiments
[4] = 50 uM NA, single experiments Ex 1-3

Question: How did the “magnitude of repeat units lost (greatest)” value ([1]; 50 μM NA) turn out when naphthyridine-azaquinolone was run?
Answer: The value was no more than 790 repeats.

Question: What about the “% Unchanged” value [1, 3] of the same substance?
Answer: The value was 26.7%.

Question: What about the “Average Change of Repeat Size” value ([1]; 50 uM NA, Total of 3 experiments, all alleles) of the same substance?
Answer: Its value is −125.7 number of repeats.

Question: And the “% Contraction” value [1, 3]?
Answer: The value was 59.4%.

Question: And the “% Expansion” value [1, 3]?
Answer: Its value is 13.9%.

Question: What about the “% Unchanged” value [1, 4] of the same substance?
Answer: The value was 28.4% and 27.4% and 23.7%.

Question: What about the “% Contraction” value [1, 4] of the same substance?
Answer: The value was 56.8% and 60.0% and 61.0%.

Question: And the “% Expansion” value [1, 4]?
Answer: The value was 14.8% and 11.3% and 15.2%.

Question: What about the “instability index of striatum” value ([2]; 1, 2 and 4 administrations) of the same substance?
Answer: Its value is “progressively reduced”.

Question: What about the “effect on expanded repeat relative to saline-injected contralateral striatum” value ([2]; 6-week-old R6/2 mice, repeated intra-striatal injections over four weeks) of the same substance?
Answer: The value was “led to seeming contractions of the expanded repeat”.

Question: What about the “extrapolated repeat contraction in an HD-affected human” value ([2]; extrapolation from mice, treatments spanning one year) of the same substance?
Answer: Its value is 5-25 repeats.

Question: What about the “difference of main peak CAG lengths saline- versus NA-treated versus tail” value ([2]; four injections, 500 μM NA intra-striatal) of the same substance?
Answer: The value was 4-7 CAG units.

Question: What about the “CAG length heterogeneity in cerebral cortex and cerebellum (non-injected tissues)” value ([2]; intra-striatal injections, left versus right side) of the same substance?
Answer: The value was “identical patterns of CAG length heterogeneity in the right and left sides”.

Question: And the “rate of contractions in striatal neurons” value ([2]; mice with about 150 CAG repeats, four-week period of NA treatment, 500 μM intra-striatal)?
Answer: The value was roughly 0.5 repeats lost/week.
